We go through four compounds from article PMC8179002, “Inhibitors of thiol-mediated uptake” (Chemical Science, 2020).

Data set [1] relates to HeLa Kyoto cells. To be noted: cited from earlier work.
The subject of data set [2] is cellular uptake of 1 in HeLa Kyoto cells. Nature of the data set: cells. The class given is cell-based. To be noted: HeLa, removal, tinc 0.5 h with 1 (10 µM); for IC50: read-out: IC50, inhibition of cellular uptake of 1. As to the method: (§1) With COCs 1 and 2 as cell-penetrating reporters, a fully automated, fluorescent microscopy image-based high-content high-throughput (HCHT)[19] inhibitor screening assay was developed. HeLa cells in multiwell plates are incubated with a reporter at constant and inhibitors at varying concentrations and incubation times. Hindered reporter uptake then causes decrease of fluorescence inside of cells (Fig. 3a). Automated data analysis[19] was established to extract average fluorescence intensity per cell and, at the same time, cell viability from propidium iodide negative nuclei count (Fig. 3 and S3–S6 ^†). Standard assay conditions consisted of pre-incubation of HeLa cells with inhibitors for different periods of time, followed by the removal of inhibitors and the addition of reporters, thus excluding possible interactions between the two in the extracellular environment. In alternative co-incubation conditions, inhibitors were not removed before the addition of reporters to allow for eventual interactions between the two.
4. High-Content High-Throughput (HCHT) Inhibitor Screening
4.1. General Procedure for HCHT Inhibitor Screening
4.1.1. Pre-Incubation of Inhibitors
HeLa Kyoto cells were seeded at 1.2 ×10^4 cells/well in FluoroBrite DMEM + 10% FBS on μ-Plate 96-well Black ibiTreat sterile and kept at 37 °C with 5% CO2 overnight. Next day, serial dilutions of the inhibitors in PBS (10x final concentration), reporter 1 or 2 (100 μM in PBS) and a solution of Hoechst 33342 (100 μg/mL) and PI (10 μg/mL) in PBS were prepared freshly in a 96-well V-bottom plate. Then, cells were washed with PBS ([…]) and the media was exchanged to FluoroBrite DMEM (4 x 150 μL/well) using a plate washer (Biotek EL406®), keeping always a final volume of 135 μL/well. The inhibitor solutions from the V-bottom plate were added to the cells (15 μL/well, 10x final concentration in PBS) using an electronic multichannel pipettes to reach a final volume of 150 μL/well. Cells were incubated for the time of interest (for details of each inhibitors, see Section 4.3 and 4.4) at 37 °C with 5%
CO2. After this, cells were washed again using the plate washer and reporter solution 1 or 2 from the V-bottom plate was added (15 μL/well) using an electronic multichannel pipettes to reach a final volume of 150 μL/well and a final concentration of 10 μM, except for the control wells, where only PBS was added (15 μL/well). After 30 min of incubation at 37 °C with 5% CO2, the plate was washed again using the plate washer. Then, the solution of Hoechst 33342 and PI from V-bottom plate was added (15 μL/well) using an electronic multichannel pipettes to reach a final volume of 150 μL/well. After 15 min of incubation at 37 °C with 5% CO2, the plate was washed one last time and the cells were kept in clean FluoroBrite DMEM. During imaging, samples were kept at 37 °C with 5% CO2 in the microscope.
4.1.2. Co-Incubation of Inhibitors and Reporters […]
serial dilutions of the inhibitors in PBS (10x final concentration), reporter 1 or 2 (110 μM in […]
freshly in a 96-well V-bottom plate. Then, cells were washed with the plate washer. The inhibitor solutions from the V-bottom plate were added to the cells (15 μL/well, 10x final concentration in PBS) using an electronic multichannel pipettes to reach a final volume of 150 μL/well. Cells were incubated for the time of interest (for details of each inhibitors, see Section 4.3 and 4.4) at 37 °C with 5% CO2. Reporter solution 1 or 2 from V-bottom plate was then added (15 μL/well) using an electronic multichannel pipettes to reach a final volume of 165 μL/well and a final concentration of 10 μM 30 min before the next washing process, except for the control wells, where only PBS was added (15 μL/well). The plate was washed again using the plate washer. The solution of Hoechst 33342 and PI from V-bottom plate was added (15 μL/well) using an electronic multichannel pipettes to reach a final volume of 150 μL/well. After […]

Data set [3] concerns HeLa Kyoto cells. In words: Relative cell viability in HCHT screening (propidium iodide negative nuclei count). To be noted: HeLa, removal, tinc 0.5 h with 1 (10 µM), read-out: GI50, concentration causing 50% cell growth inhibition. The class given is cell-based. As to the method:
as §1
To be able to extract the fluorescent integrated intensity information (sum of the intensities of all the pixels included in the mask) from the green channel for live cell only, the image analysis pipeline contains several steps of cell filtering and selection:
1) Firstly, PI is used to stain any remaining nuclei of dead cell. In the analysis pipeline, all the “dead” nuclei are detected based on their fluorescent intensity in the PI channel (Figure […]
Fig. S4 (A) PI positive nuclei mask (fluorescent intensity threshold of 1000). (B) Overlap image of dead nuclei mask and original all cell body mask. (C) Resulting cell mask after removing any cell marked by a dead nucleus, new mask is called “Live Cell”. Scale bar: 50 μm.
2) Elimination of non-full cells from the border of the image is performed, to avoid inaccurate fluorescent integrated intensity quantification (fluorescent integrated intensity = sum of intensity of all the pixel of the object) (Figure S5).
(1 picture or pasted object on this page, not shown here)
4.3. HCHT Inhibitor Screening with ETP as Reporter […]
Relative cell viability (RV) for each condition in the presence of inhibitors were calculated using the count value of living cells by dividing the count value of living cells with addition of reporter 1, Hoechst 33342 and PI, for each set of experiments. Duplicates were performed for each condition. The resulting dependence of the relative cell viability (RVrel) to the concentration of inhibitors (cinhibitor) was plotted and fitted with Equation (S2) to retrieve the concentration causing 50% cell growth inhibition (GI50) value and the Hill coefficient (n).
RVrel = 1 / (1 + (GI50 / cinhibitor)n) (S2)
Note: Reporter 1 were not toxic for 1 h at 10 μM.S2 Also in this study, the count value of living cells with addition of reporter 1, Hoechst 33342 and PI is always similar to that of living cells with only addition of Hoechst 33342 and PI.
Relative cell viability (RV) for each condition with inhibitors were calculated using the count value of living cells by dividing the count value of living cells with addition of reporter 2, Hoechst 33342 and PI, for each set of experiments. Duplicates were performed for each condition. The resulting dependence of the relative cell viability (RVrel) to the concentration of inhibitors (cinhibitor) was plotted and fitted with Equation (S2) to retrieve the concentration causing 50% cell growth inhibition (GI50) value and the Hill coefficient (n).
Note: Reporter 2 were not toxic for 24 h at 10 μM.S3 Also in this study, the count value of living cells with addition of reporter 2, Hoechst 33342 and PI is always similar to that of living cells with only addition of Hoechst 33342 and PI.
4.4.1. Screening with Disulfides as Inhibitors
4.4.1.1. Screening with ETP as Inhibitors
Fig. S35 Automatically analyzed HCHT data showing fluorescence intensity (filled symbols) and relative viability (empty symbols) of HeLa cells after pre-incubation with 3 for 1 h (blue […]

In the next data set the test system is thiol-mediated uptake. In words: Inhibition of thiol-mediated uptake, reporter and protocol not stated. The class given is cell-based. To be noted: preliminary results; note 34.

Where two headings read alike, the source gives them in different places.

As for `CCN1C(=O)C2SSC1C(=O)N2CC(=O)NCCNC(=S)Nc1ccc(-c2c3ccc(=O)cc-3oc3cc(O)ccc23)c(C(=O)O)c1` (stereo not drawn) [compound 1], in the data set with HeLa Kyoto cells [1] (1 h at 10 μM, ref S2), the Toxicity of reporter entry is on record as “not toxic”.
For the compound `O=C(NCCNC(=S)Nc1ccc(-c2c3ccc(=O)cc-3oc3cc(O)ccc23)c(C(=O)O)c1)c1ccc2c(c1)SSSSS2` [compound 2], the Toxicity of reporter entry in the data set with HeLa Kyoto cells [1] (24 h at 10 μM, ref S3) is “not toxic”.
Usually IC50 stands for the concentration at which inhibition is half-maximal. For `[O-][S+]1CC(O)C(O)CS1` (stereo not drawn) [compound 22], the “MIC, inhibition of cellular uptake of 1” value in data set [2] (tpre 1 h with inhibitor) is reported as 0.8 mM; in data set [2] (tpre 2 h with inhibitor), 0.6 mM; in data set [2] (tpre 4 h with inhibitor) it was 0.3 mM. Also, the IC50 in data set [2] (tpre 1 h with inhibitor) is more than 5 mM; in data set [2] (tpre 2 h with inhibitor), more than 2 mM; in data set [2] (tpre 4 h with inhibitor) it was more than 2 mM. The GI50 is 4.4 ± 0.2 mM with HeLa Kyoto cells [3] (tpre 1 h with inhibitor), more than 5 mM in the data set on HeLa Kyoto cells [3] (tpre 2 h with inhibitor) and more than 2 mM with HeLa Kyoto cells [3] (tpre 4 h with inhibitor).
For the compound `O=c1c2ccccc2[se]n1-c1ccccc1` [ebselen], in the data set on thiol-mediated uptake, the “Inhibition of thiol-mediated uptake, in words” value is “inhibits”.
